Experiment [1] has as its target GDP-bound HRAS wild-type protein (Homo sapiens, UniProt P01112). As to the kind of experiment: Binding to HRAS by surface plasmon resonance (SPR), Single Cycle Kinetics. The following applies: for HRAS/KRAS (ratio of KD value for HRAS to KD value for KRAS) / HRAS/KRAS (ratio of KD value with respect to HRAS to KD value with respect to KRAS): SPR, GDP-bound HRAS wild-type protein vs GDP-bound KRAS wild-type protein; for HRAS/KRAS (ratio of KD value with respect to GDP-bound HRAS wild-type protein to KD value with respect to KRAS): SPR KD ratio HRAS/KRAS, class symbols.

Experiment [2] concerns the target GDP-bound KRAS wild-type protein (Homo sapiens, UniProt P01116). As to the kind of experiment: Binding to KRAS by surface plasmon resonance (SPR), Single Cycle Kinetics. The note with it: GDP-bound KRAS wild-type protein, read-out: KRAS KD. On the technique in general: In SPR one partner is held on a chip, and binding of the other changes the refractive index at the surface.

In experiment [3] the target is GDP-bound NRAS wild-type protein (Homo sapiens, UniProt P01111). The experiment in a line: Binding to NRAS by surface plasmon resonance (SPR), Single Cycle Kinetics. The note with it: for NRAS/KRAS (ratio of KD value for NRAS to KD value for KRAS) / NRAS/KRAS (ratio of KD value with respect to NRAS to KD value with respect to KRAS): SPR, GDP-bound NRAS wild-type protein vs GDP-bound KRAS wild-type protein; for NRAS/KRAS (ratio of KD value with respect to GDP-bound NRAS wild-type protein to KD value with respect to KRAS): SPR KD ratio NRAS/KRAS, class symbols.

Setting [4] is: SPR Single Cycle Kinetics, 1:1 binding model.

Consider ten molecules from patent US20240158446A1, “CYCLIC COMPOUND HAVING SELECTIVE INHIBITORY ACTION ON KRAS OVER HRAS AND NRAS” (CHUGAI SEIYAKU KABUSHIKI KAISHA, priority 2021, published 2024).

For orientation: Kd means the free concentration of one partner at which half of the binding sites on the other are occupied at equilibrium, for simple one-to-one binding.

Read-outs that look alike come from different tables or passages of the source. Where a SMILES comes first, the peptide text is derived from it. Bridges are numbered along the chain shown (N, C = ends). [ ]: non-standard residue; d: D form. The star is where a group is joined. hPhe(3-Cl-4-CF3) = N[C@@H](CCc1ccc(C(F)(F)F)c(Cl)c1)C(=O)O; NPrPhe(4-CF3) = CCCN[C@@H](Cc1ccc(C(F)(F)F)cc1)C(=O)O; NMeGly(cPent) = CN[C@H](C(=O)O)C1CCCC1; Pro(4,4-F2) = O=C(O)[C@@H]1CC(F)(F)CN1; Gly(cBu) = N[C@H](C(=O)O)C1CCC1; NMeD = CN[C@@H](CC(=O)O)C(=O)O; NMeL = CN[C@@H](CC(C)C)C(=O)O; Morpholide = C1CN(*)CCO1; NMeA = CN[C@@H](C)C(=O)O; Ac5c = NC1(C(=O)O)CCCC1; Aze = O=C(O)[C@@H]1CCN1; Sar = CNCC(=O)O

GDP-bound NRAS wild-type protein, sequence (P01111 whole entry): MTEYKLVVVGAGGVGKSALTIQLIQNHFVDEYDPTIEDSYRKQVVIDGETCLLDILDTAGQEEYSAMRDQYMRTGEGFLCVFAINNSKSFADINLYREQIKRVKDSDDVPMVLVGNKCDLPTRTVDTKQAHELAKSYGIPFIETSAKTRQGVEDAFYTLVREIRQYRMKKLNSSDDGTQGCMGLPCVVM
GDP-bound KRAS wild-type protein, sequence (P01116 whole entry): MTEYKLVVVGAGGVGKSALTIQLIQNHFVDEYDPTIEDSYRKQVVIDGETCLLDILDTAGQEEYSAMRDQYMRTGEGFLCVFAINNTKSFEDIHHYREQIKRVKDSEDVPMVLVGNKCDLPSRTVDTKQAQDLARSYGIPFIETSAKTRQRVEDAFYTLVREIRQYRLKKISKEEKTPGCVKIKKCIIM
GDP-bound HRAS wild-type protein, sequence (P01112 whole entry): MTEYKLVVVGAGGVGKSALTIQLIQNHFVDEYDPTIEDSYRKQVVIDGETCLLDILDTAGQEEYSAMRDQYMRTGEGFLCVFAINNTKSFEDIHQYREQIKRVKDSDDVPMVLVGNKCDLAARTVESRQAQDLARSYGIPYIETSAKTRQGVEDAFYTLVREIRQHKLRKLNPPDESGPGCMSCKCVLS

Take `CCO[C@@H]1C[C@H]2C(=O)NC3(CCC3)C(=O)N(C)[C@@H](C(CC)CC)C(=O)N(C)[C@H](C(=O)N3CCOCC3)CC(=O)N(C)[C@@H](CC(C)C)C(=O)N[C@@H]([C@@H](C)CC)C(=O)N(C)CC(=O)N(C)[C@H]3CCCCN(C3=O)[C@@H](Cc3ccc(C(F)(F)F)cc3)C(=O)N(C)CC(=O)N[C@@H](CCc3cc(F)c(C(F)(F)F)c(F)c3)C(=O)N2C1` [PP0811]: the “HRAS/KRAS (ratio of KD value for HRAS to KD value for KRAS)” value in experiment [1] is “B (a compound having 3 or more and less than 10 is denoted as B)”. Moreover, in experiment [2] (SPR, Single Cycle Kinetics), the Kd worked out at 83 pM. Also, the “NRAS/KRAS (ratio of KD value for NRAS to KD value for KRAS)” value in experiment [3] is “B (a compound having 3 or more and less than 10 is denoted as B)”.
For `C=CCC[C@H]1C(=O)N[C@@H]([C@@H](C)CC)C(=O)N(C)CC(=O)N(C)[C@H]2CCCCN(C2=O)[C@@H](Cc2ccc(C(F)(F)F)cc2)C(=O)N(C)CC(=O)N[C@@H](CCc2cc(F)c(C(F)(F)F)c(F)c2)C(=O)N2C[C@H](OCC)C[C@H]2C(=O)N[C@](C)(CC=C)C(=O)N(C)[C@@H](C2CCCC2)C(=O)N(C)[C@H](C(=O)N2CCOCC2)CC(=O)N1C` [PP0875], the “HRAS/KRAS (ratio of KD value for HRAS to KD value for KRAS)” value in experiment [1] was “B (a compound having 3 or more and less than 10 is denoted as B)”. For the same molecule, the dissociation constant Kd in experiment [2] (SPR, Single Cycle Kinetics) stood at 96 pM. Also, the “NRAS/KRAS (ratio of KD value for NRAS to KD value for KRAS)” value in experiment [3] was “C (A compound having a KD ratio of 0.1 or more and less than 3 is denoted as C)”.
In the case of `CCCO[C@H]1CCN2C(=O)[C@H](CCc3cc(F)c(C(F)(F)F)c(F)c3)NC(=O)CN(C)C(=O)[C@H](Cc3ccc(C(F)(F)F)cc3)N3CCCC[C@@H](C3=O)N(C)C(=O)CN(C)C(=O)[C@H]([C@@H](C)CC)NC(=O)[C@H](CC(C)C)N(C)C(=O)C[C@@H](C(=O)N3CCOCC3)N(C)C(=O)[C@H](C3CCCC3)N(C)C(=O)C3(CCC3)NC(=O)[C@H]12` [PP1077], in experiment [1], the “HRAS/KRAS (ratio of KD value for HRAS to KD value for KRAS)” value was “B (a compound having 3 or more and less than 10 is denoted as B)”. Further, in experiment [2] (SPR, Single Cycle Kinetics), the Kd was found to be 85 pM. Moreover, the “NRAS/KRAS (ratio of KD value for NRAS to KD value for KRAS)” value in experiment [3] is “B (a compound having 3 or more and less than 10 is denoted as B)”.
With `CCCN1C(=O)CN(C)C(=O)CN(C)C(=O)[C@H](C2CCC2)NC(=O)[C@H](CC(C)C)N(C)C(=O)C[C@@H](C(=O)N2CCOCC2)N(C)C(=O)[C@H](C2CCCC2)N(C)C(=O)C2(CCCC2)NC(=O)[C@@H]2CCCN2C(=O)[C@H](CCc2ccc(C(F)(F)F)c(Cl)c2)NC(=O)CN(C)C(=O)[C@@H]1Cc1ccc(C(F)(F)F)cc1` [PP0250] ([NMeL][Gly(cBu)][Sar][Sar][NPrPhe(4-CF3)][Sar][hPhe(3-Cl-4-CF3)]P[Ac5c][NMeGly(cPent)][NMeD]-Morpholide; lactam N-11), in experiment [1], the “HRAS/KRAS (ratio of KD value for HRAS to KD value for KRAS)” value was “C (A compound having a KD ratio of 0.1 or more and less than 3 is denoted as C)”. Moreover, in experiment [2] (setting [4]), the dissociation constant Kd worked out at 120 pM. Further, the “NRAS/KRAS (ratio of KD value for NRAS to KD value for KRAS)” value in experiment [3] is “B (a compound having 3 or more and less than 10 is denoted as B)”.
Turning to `CCCN1C(=O)CN(C)C(=O)CN(C)C(=O)[C@H]([C@@H](C)CC)NC(=O)[C@H](CC(C)C)N(C)C(=O)C[C@@H](C(=O)N2CCOCC2)NC(=O)[C@H](C2CCCC2)N(C)C(=O)C2(CCCC2)NC(=O)[C@@H]2CC(F)(F)CN2C(=O)[C@H](CCc2ccc(C(F)(F)F)c(Cl)c2)NC(=O)CN(C)C(=O)[C@@H]1Cc1ccc(C(F)(F)F)cc1` [PP0321] ([NMeL]I[Sar][Sar][NPrPhe(4-CF3)][Sar][hPhe(3-Cl-4-CF3)][Pro(4,4-F2)][Ac5c][NMeGly(cPent)]D-Morpholide; lactam N-11), the “HRAS/KRAS (ratio of KD value for HRAS to KD value for KRAS)” value in experiment [1] was “B (a compound having 3 or more and less than 10 is denoted as B)”. Further, the Kd in experiment [2] (setting [4]) stood at 1000 pM. Besides, the “NRAS/KRAS (ratio of KD value for NRAS to KD value for KRAS)” value in experiment [3] was “B (a compound having 3 or more and less than 10 is denoted as B)”.
Regarding `CCCN1C(=O)[C@@H]2CCN2C(=O)[C@H](C)N(C)C(=O)[C@H]([C@@H](C)CC)NC(=O)[C@H](CC(C)C)N(C)C(=O)C[C@@H](C(=O)N(C)C)N(C)C(=O)[C@H](C2CCCC2)N(C)C(=O)C2(CCCC2)NC(=O)[C@@H]2CC(F)(F)CN2C(=O)[C@H](CCc2ccc(C(F)(F)F)c(Cl)c2)NC(=O)CN(C)C(=O)[C@@H]1Cc1ccc(C(F)(F)F)cc1` [PP0436] ([NMeL]I[NMeA][Aze][NPrPhe(4-CF3)][Sar][hPhe(3-Cl-4-CF3)][Pro(4,4-F2)][Ac5c][NMeGly(cPent)][NMeD]-NMe2; lactam N-11), the “HRAS/KRAS (ratio of KD value with respect to HRAS to KD value with respect to KRAS)” value in experiment [1] is “C (A compound having a KD ratio of 0.1 or more and less than 3 is denoted as C)”. For the same molecule, the Kd in experiment [2] (setting [4]) worked out at 54 pM. In experiment [3], the “NRAS/KRAS (ratio of KD value with respect to NRAS to KD value with respect to KRAS)” value is “C (A compound having a KD ratio of 0.1 or more and less than 3 is denoted as C)”.
Take `CCO[C@@H]1C[C@H]2C(=O)NC3(CC(C)(C)C3)C(=O)N(C)[C@@H](C3CCCC3)C(=O)N(C)[C@H](C(=O)N(C)C)CC(=O)N(C)[C@@H](CC(F)(F)F)C(=O)N[C@@H]([C@@H](C)CC)C(=O)N(C)CC(=O)N(C)[C@H]3C/C=C\CCN(C3=O)[C@@H](Cc3ccc(C(F)(F)F)cc3)C(=O)N(C)CC(=O)N[C@@H](CCc3ccc(C(F)(F)F)c(Cl)c3)C(=O)N2C1` [PP2833]: the “HRAS/KRAS (ratio of KD value with respect to GDP-bound HRAS wild-type protein to KD value with respect to KRAS)” value in experiment [1] is “A (a compound having 10 or more and less than 20 is denoted as A)”. Further, the dissociation constant (Kd) in experiment [2] (setting [4]) is 52 pM. Further, in experiment [3], the “NRAS/KRAS (ratio of KD value with respect to GDP-bound NRAS wild-type protein to KD value with respect to KRAS)” value was “A (a compound having 10 or more and less than 20 is denoted as A)”.
Regarding `CC[C@H](C)[C@@H]1NC(=O)[C@H](C)N(C)C(=O)C[C@@H](C(=O)N(C)C)N(C)C(=O)[C@H](C2CCCC2)N(C)C(=O)C2(CCC2)NC(=O)[C@@H]2CCCN2C(=O)[C@H](CCc2cc(F)c(C(F)(F)F)c(F)c2)NC(=O)CN(C)C(=O)[C@H](Cc2ccc(C(F)(F)F)cc2)N2CCCC[C@@H](C2=O)N(C)C(=O)CN(C)C1=O` [PP0581], the “HRAS/KRAS (ratio of KD value with respect to HRAS to KD value with respect to KRAS)” value in experiment [1] is “B (a compound having 3 or more and less than 10 is denoted as B)”. In addition, the equilibrium dissociation constant (Kd) in experiment [2] (setting [4]) came to 20 pM. The “NRAS/KRAS (ratio of KD value with respect to NRAS to KD value with respect to KRAS)” value in experiment [3] is “C (A compound having a KD ratio of 0.1 or more and less than 3 is denoted as C)”.
Regarding `C#CC[C@H]1C(=O)N[C@@H]([C@@H](C)CC)C(=O)N(C)CC(=O)N(C)[C@H]2C/C=C\CCN(C2=O)[C@@H](Cc2ccc(C(F)(F)F)cc2)C(=O)N(C)CC(=O)N[C@@H](CCc2ccc(C(F)(F)F)c(Cl)c2)C(=O)N2C[C@H](OCC)C[C@H]2C(=O)NC2(CC(C)(C)C2)C(=O)N(C)[C@@H](C2CCCC2)C(=O)N(C)[C@H](C(=O)N(C)CC)CC(=O)N1C` [PP2844], the “HRAS/KRAS (ratio of KD value with respect to GDP-bound HRAS wild-type protein to KD value with respect to KRAS)” value in experiment [1] is “A (a compound having 10 or more and less than 20 is denoted as A)”. Also, in experiment [2] (setting [4]), the Kd was 120 pM. Besides, in experiment [3], the “NRAS/KRAS (ratio of KD value with respect to GDP-bound NRAS wild-type protein to KD value with respect to KRAS)” value was “A (a compound having 10 or more and less than 20 is denoted as A)”.
For `C#CC[C@H]1C(=O)N[C@@H]([C@@H](C)CC)C(=O)N(C)CC(=O)N(C)[C@H]2C/C=C\CCN(C2=O)[C@@H](Cc2ccc(C(F)(F)F)cc2)C(=O)N(C)CC(=O)N[C@@H](CCc2ccc(C(F)(F)F)c(OC)c2)C(=O)N2CC[C@H]2C(=O)NC2(CCC2)C(=O)N(C)[C@@H](C2CCCC2)C(=O)N(C)[C@H](C(=O)N(C)C)CC(=O)N1C` [PP2911], the “HRAS/KRAS (ratio of KD value with respect to GDP-bound HRAS wild-type protein to KD value with respect to KRAS)” value in experiment [1] is “B (a compound having 3 or more and less than 10 is denoted as B)”. Moreover, the Kd in experiment [2] (setting [4]) was 520 pM. In addition, in experiment [3], the “NRAS/KRAS (ratio of KD value with respect to GDP-bound NRAS wild-type protein to KD value with respect to KRAS)” value is “A (a compound having 10 or more and less than 20 is denoted as A)”.
